Experimental data taken from patent US20080213410A1, “ANTI-HUMAN PAPILLOMAS VIRUS TOPICAL COMPOSITION” (priority 2007, published 2008).

System: human papillomavirus (HPV) genital warts
Assay: 15 months treatment of 90 infected patients, number of recurrent warts (Example 1)
Format: in vivo
Description: The composition, to be applied topically or transdermally to the skin and mucous membranes, is of high interest because it triggers little or no side-effects, very little irritation, no restrictive length of application, no impact on non-infected skin, can heal surface and/or deep flesh warts and prevent the recurrence of outbreaks. The treatment consists in topically administering the composition to the HPV infected skin and mucous membranes of patients. Such physiological regions consists of, in particular, the skin of the penis, vulva (area outside the vagina), anus, scrotum, groin, or thigh and in the linings of the vagina, cervix, or rectum presenting the virus related warts. […] Two types of warts can be found in patients: acute or chronic warts. The first kind, the acute wart, can be treated by simply swiping the surface of the skin or mucous membrane with a swab, previously impregnated with the composition, and gently rubbing the skin in order to allow penetration of the composition in its deepest layers. The second kind is the chronic wart, which requires a more invasive type of treatment. Indeed, the treatment is either effected by applying to the skin or mucous surface to treat a transdermal patch, constantly and regularly diffusing the composition through the area it covers, or by using a microlet, which uses a needle rapidly piercing the skin and injecting the composition deeply in the flesh.
Posology: Application of the topical composition is effected 1 time per week through swiping of the region with a swab containing the composition in the case of an acute wart or through the use of a transdermal patch or microlet in the case of a chronic wart.
Results: Table 1 comprises the results of a 15 months treatment with the composition of the present invention on a total of 90 infected patients. Table 2 comprises the results of a 15 months treatment with liquid nitrogen on a total of 90 infected patients. The compiled data consists of the number of recurrent warts that had still developed after a 15 months treatment with either the cream of the present invention or with liquid nitrogen. These records represent direct evidence that the composition of the present invention is effective, the number of warts that had still reappeared after a 15 months long treatment of the intermittent lesion and inflammation being less important with the cream than with the liquid nitrogen. Indeed, 67% of patients treated with the composition of the present invention presented a low degree of infections after the 15 months treatment (1 to 2 recurrent warts) whereas only 13% of the patients treated with the liquid nitrogen presented similar results.

N#N [liquid nitrogen]
patients presenting a low degree of infections after the 15 months treatment (1 to 2 recurrent warts) (90 patients per treatment): 13%
Number of patients with 1 to 2 recurrent warts after a 15 months treatment (90 patients, 1 to 2 warts): 12
Number of patients with 3 to 5 recurrent warts after a 15 months treatment (90 patients, 3 to 5 warts): 49
Number of patients with 6 to 10 recurrent warts after a 15 months treatment (90 patients, 6 to 10 warts): 29
